Test results reported in US4036834A, “Derivatives of 7-(α-hydroxy-substituted pyridyl carboxamido-α p h Δ^3 -cephem-4-carboxylic acid” (Yamanouchi Pharmaceutical Co., Ltd., priority 1974, dated 1977).
Values after ≈ are worked out from the molar mass of the structure shown. Where two headings read alike, the source gives them in different places.

How the values were obtained:
[1] = tested on: proteus mirabilis IFM OM-19; experiment: MIC against proteus mirabilis IFM OM-19; type: cell-based; settings: IFMOM19
Text: (§1) Now, for illustrating the excellent pharmacological effects of the compounds of this invention, the values of MIC (γ/ml) of the compounds against various bacteria are shown in the following table, the compounds of this invention are shown by example numbers.
3. proteus mirabilis IFM OM-19

[2] = tested on: pseudomonas aeruginosa ATCC 8689; experiment: MIC against pseudomonas aeruginosa ATCC 8689; type: cell-based; settings: ATCC8689
Text: as §1
4: pseudomonas aeruginosa ATCC 8689

[3] = tested on: salmonella enteritidis; experiment: MIC against salmonella enteritidis; type: cell-based; settings: Salmonella enterica
Text: as §1
10: salmonella enteritidis

[4] = tested on: proteus vulgaris OX 19US; experiment: MIC against proteus vulgaris OX 19US; type: cell-based; settings: OX19US
Text: as §1
2. proteus vulgaris OX 19US

[5] = tested on: salmonella typhi H901W; experiment: microbe, parasite or virus in culture; type: cell-based; settings: Salmonella enterica
[6] = tested on: Bacillus subtilis ATCC 6633; experiment: MIC against Bacillus subtilis ATCC 6633; type: cell-based; settings: ATCC6633
Text: as §1
14: Bacillus subtilis ATCC 6633

[7] = tested on: Proteus vulgaris OXK US; experiment: MIC against Proteus vulgaris OXK US; type: cell-based
Text: as §1
1: Proteus vulgaris OXK US

[8] = tested on: staphylococcus aureus 209P; experiment: MIC against staphylococcus aureus 209P; type: cell-based
Text: as §1
16: staphylococcus aureus 209P

[9] = tested on: Shigella sonnei II 37148; experiment: MIC against Shigella sonnei II 37148; type: cell-based; settings: II37148
Text: as §1

[10] = tested on: escherichia coli Kauffman 0-1; experiment: MIC against escherichia coli Kauffman 0-1; type: cell-based
Text: as §1
7: escherichia coli Kauffman 0-1

[11] = tested on: bacillus megatherium 10778; experiment: MIC against bacillus megatherium 10778; type: cell-based
Text: as §1

[12] = tested on: Staphylococcus Onuma; experiment: MIC against Staphylococcus Onuma; type: cell-based
Text: as §1

[13] = tested on: Klebsiella pneumoniae ATCC 10031; experiment: MIC against Klebsiella pneumoniae ATCC 10031; type: cell-based; settings: Klebsiella pneumoniae, ATCC10031
Text: as §1
8: Klebsiella pneumoniae ATCC 10031

[14] = tested on: pseudomonas aeruginosa 99 (Gentamycin resistant); experiment: MIC against pseudomonas aeruginosa 99 (Gentamycin resistant); type: cell-based
Text: as §1
5: pseudomonas aeruginosa 99 (Gentamycin resistant)

[15] = tested on: staphylococcus Shimanishi; experiment: MIC against staphylococcus Shimanishi; type: cell-based
Text: as §1
17. staphylococcus Shimanishi

[16] = tested on: Pseudomonas ovalis IAM 1002; experiment: MIC against Pseudomonas ovalis IAM 1002; type: cell-based; settings: Pseudomonas putida, IAM1002
Text: as §1
6: Pseudomonas ovalis IAM 1002

[17] = tested on: Shigella flexnori 2a 1675; experiment: MIC against Shigella flexnori 2a 1675; type: cell-based; settings: 2A1675
Text: as §1

[18] = tested on: micrococcus flavus ATCC 10240; experiment: MIC against micrococcus flavus ATCC 10240; type: cell-based; settings: ATCC10240
Text: as §1

[19] = water solubility, naked-eye observation of solutions; type: physicochemical
Text: Then, the experimental results showing the excellent water solubility of the compounds of this invention are illustrated in the following table, the results being the observation results by the naked eyes of the solutions thereof in each concentration as shown in the table.

[20] = pseudomonas aeruginosa ATCC 8689, read-out: MIC
[21] = proteus vulgaris OX 19US, read-out: MIC
[22] = Bacillus subtilis ATCC 6633, read-out: MIC
[23] = bacillus megatherium 10778, read-out: MIC
[24] = staphylococcus Shimanishi, read-out: MIC
[25] = micrococcus flavus ATCC 10240, read-out: MIC

Cc1nnc(SCC2=C(C(=O)O)N3C(=O)[C@@H](NC(=O)Cn4cnnn4)[C@H]3SC2)s1 [Cephazolin, reference compound]
MIC [1]: 6.25 µg/mL (≈ 13.8 µM)
MIC [2, 20]: > 100 µg/mL
MIC ([3]; ENTERITIDIS): 1.56 µg/mL (≈ 3.43 µM)
MIC [4, 21]: 25 µg/mL (≈ 55 µM)
MIC [5]: 1.56 µg/mL (≈ 3.43 µM)
MIC [6, 22]: 0.19 µg/mL (≈ 0.418 µM)
MIC ([7]; Proteus vulgaris): 3.13 µg/mL (≈ 6.89 µM)
MIC ([8]; read-out: MIC): 0.19 µg/mL (≈ 0.418 µM)
MIC [9]: 1.56 µg/mL (≈ 3.43 µM)
MIC ([10]; Escherichia coli): 1.56 µg/mL (≈ 3.43 µM)
MIC [11, 23]: 0.19 µg/mL (≈ 0.418 µM)
MIC ([12]; Staphylococcus): 1.56 µg/mL (≈ 3.43 µM)
MIC [13]: 1.56 µg/mL (≈ 3.43 µM)
MIC ([14]; pseudomonas aeruginosa 99 (Gentamycin resistant), read-out: MIC): > 100 µg/mL
MIC [15, 24]: 0.78 µg/mL (≈ 1.72 µM)
MIC ([16]; Pseudomonas ovalis IAM 1002, read-out: MIC): > 100 µg/mL
MIC [17]: 1.56 µg/mL (≈ 3.43 µM)
MIC [18, 25]: 0.19 µg/mL (≈ 0.418 µM)

Nc1cc(Cl)cc(SCC2=C(C(=O)O)N3C(=O)C(NC(=O)C(NC(=O)c4cccnc4)c4ccccc4)C3SC2)n1 (stereo not drawn) [Contrast, 7-(α-nicotinoylamido-α-phenylacetamido)-3-(2-amino-4-chloropyidin-6-ylthiomethyl)-Δ ^3-cephem-carboxylic acid, reference compound]
water solubility (appearance of solution by the naked eyes) ([19]; concentration 1%): clear
water solubility (appearance of solution by the naked eyes) ([19]; concentration 5%): slightly turbid
water solubility (appearance of solution by the naked eyes) ([19]; concentration 10%): turbid
water solubility (appearance of solution by the naked eyes) ([19]; concentration 20%): gelled

CC(=O)OCC1=C(C(=O)O)N2C(=O)[C@@H](NC(=O)Cc3cccs3)[C@H]2SC1 [Cephalothin, reference compound]
MIC ([2]; Pseudomonas aeruginosa): > 100 µg/mL
MIC ([3]; ENTERITIDIS): 0.39 µg/mL (≈ 0.984 µM)
MIC ([4]; Proteus vulgaris): 12.5 µg/mL (≈ 31.5 µM)
MIC [5]: 1.56 µg/mL (≈ 3.93 µM)
MIC ([6]; Bacillus subtilis): < 0.09 µg/mL
MIC [8]: 0.19 µg/mL (≈ 0.479 µM)
MIC [9]: 6.25 µg/mL (≈ 15.8 µM)
MIC ([10]; Escherichia coli): 3.13 µg/mL (≈ 7.9 µM)
MIC ([12]; Staphylococcus): 0.39 µg/mL (≈ 0.984 µM)
MIC [13]: 0.78 µg/mL (≈ 1.97 µM)
MIC ([14]; Pseudomonas aeruginosa): > 100 µg/mL
MIC ([15]; Staphylococcus): 0.39 µg/mL (≈ 0.984 µM)
MIC [17]: 6.25 µg/mL (≈ 15.8 µM)

CSc1nc(S)cc(SCC2=C(C(=O)O)N3C(=O)[C@@H](NC(=O)[C@H](NC(=O)c4cnccc4O)c4ccccc4)[C@H]3SC2)n1 [Example 7, 7-[D-α-(4-hydroxynicotinoylamido)-α-phenylacetamido]-3-(4-mercapto-2-methylthiopyrimidin-6-yl)thiomethyl-Δ^3-cephem-4-carboxylic acid]
MIC [1]: 0.78 µg/mL (≈ 1.19 µM)
MIC [2, 20]: 25 µg/mL (≈ 38.1 µM)
MIC ([3]; salmonella enteritidis, read-out: MIC): 0.39 µg/mL (≈ 0.594 µM)
MIC [4, 21]: 0.39 µg/mL (≈ 0.594 µM)
MIC [5]: 0.78 µg/mL (≈ 1.19 µM)
MIC [6, 22]: 0.19 µg/mL (≈ 0.289 µM)
MIC ([7]; Proteus vulgaris OXK US, read-out: MIC): 0.78 µg/mL (≈ 1.19 µM)
MIC [8]: 0.19 µg/mL (≈ 0.289 µM)
MIC [9]: 25 µg/mL (≈ 38.1 µM)
MIC ([10]; escherichia coli Kauffman 0-1, read-out: MIC): 25 µg/mL (≈ 38.1 µM)
MIC [11, 23]: 0.39 µg/mL (≈ 0.594 µM)
MIC ([12]; Staphylococcus Onuma, read-out: MIC): 3.13 µg/mL (≈ 4.77 µM)
MIC [13]: 12.5 µg/mL (≈ 19 µM)
MIC ([14]; Pseudomonas aeruginosa): 12.5 µg/mL (≈ 19 µM)
MIC [15, 24]: 0.78 µg/mL (≈ 1.19 µM)
MIC [16]: 12.5 µg/mL (≈ 19 µM)
MIC [17]: 12.5 µg/mL (≈ 19 µM)
MIC [18, 25]: 0.78 µg/mL (≈ 1.19 µM)

CC1=C(C(=O)O)N2C(=O)[C@@H](NC(=O)[C@H](N)c3ccccc3)[C@H]2SC1 [Cephalexin, reference compound]
MIC ([2]; Pseudomonas aeruginosa): > 100 µg/mL
MIC ([3]; ENTERITIDIS): 6.25 µg/mL (≈ 18 µM)
MIC ([4]; Proteus vulgaris): 30 µg/mL (≈ 86.4 µM)
MIC [5]: 6.25 µg/mL (≈ 18 µM)
MIC ([6]; Bacillus subtilis): 0.78 µg/mL (≈ 2.25 µM)
MIC ([7]; Proteus vulgaris): 30 µg/mL (≈ 86.4 µM)
MIC [8]: 1.56 µg/mL (≈ 4.49 µM)
MIC [9]: 6.25 µg/mL (≈ 18 µM)
MIC ([10]; Escherichia coli): 10 µg/mL (≈ 28.8 µM)
MIC ([11]; Bacillus, 10778): 0.78 µg/mL (≈ 2.25 µM)
MIC ([12]; Staphylococcus): 12.5 µg/mL (≈ 36 µM)
MIC [13]: 3 µg/mL (≈ 8.64 µM)
MIC ([15]; Staphylococcus): 6.25 µg/mL (≈ 18 µM)
MIC [17]: 6.25 µg/mL (≈ 18 µM)
MIC ([18]; Micrococcus flavus): 1.56 µg/mL (≈ 4.49 µM)
